Results reported in US20040048237A1 (priority 2002, published 2004).
Peptide text beside a SMILES is read from it. * marks the point of attachment. Cbz = O=C(OCc1ccccc1)*

Legend:
proteasome = format: cell-based

epoxomicin
rate of N2A cell death (N2A cells): died at the same rates

CC(C)C[C@@H](C=O)NC(=O)[C@H](CC(C)C)NC(=O)[C@H](CC(C)C)NC(=O)OCc1ccccc1 [MG132] (Cbz-Leu-Leu-Leu-aldehyde)
proteasome activity after MG132 treatment (proteasome): undetectable
proteasome activity restored after removal of MG132 (proteasome): > 70 % of control levels
relative proteasome inhibiting activity (proteasome): stronger proteasome inhibiting activity than 10 μM Lactacystin
cells died (N2A cells): More than 50%
cell death during proteasome inhibition relative to N2A cells (WtPN2A cells): died much more rapidly
